Reference: patent publication US11369589B2, “Modulator of indoleamine 2,3-dioxygenase, preparation method and use thereof” (NANJING CAREPHAR SHENGHUI PHARMACEUTICAL CO., LTD., priority 2018, dated 2022)

Assays:
Assay type in all cases: in vitro ADME
[1] = In vitro plasma conversion experiment of target compounds (Embodiment 7.5); settings: rat, 2 mg/mL (as Epacadostat equivalents)
Description: (§1) Mobile phase: acetonitrile (50% to 80%) and water gradient elution.
(§2) Flow rate: 1 mL/min at a column temperature of 25° C.
(§3) Detection wavelength: 254 nm at a sample size of 10 μL.
The target compounds were dissolved into a DMSO solvent. […] 20 μL of the solution was taken and added into 1.18 mL of fresh rat blank plasma, and incubation was carried out at 37° C. to obtain a sample.
(§4) 120 μL of the sample was precisely sucked at a specified time point each time. 120 μL of acetonitrile was added. High-speed vortex mixing was performed for 2 min. Centrifugation was performed at 10000 r/min for 15 min. Supernatant was taken and filtered by a 13 mm 0.45 μm filter membrane, and then determination could be performed.
(§5) Incubation was performed at 37° C. 120 μL of sample was taken at different time points respectively. Sample pretreatment was performed according to the method of 7.3. Determination was performed by an HPLC method. A peak area was recorded, and a drug concentration was calculated.
According to the method of 7.4, we performed in vitro plasma conversion experiment on the target compounds to test conversion rates of the compounds converted into the Epacadostat at different time points.

[2] = Original drug Epacadostat plasma stability test (Embodiment 7.4); settings: rat plasma, 37° C.
Description: Liquid chromatograph: Waters 2489UV/Visible Detector, Waters 1525BinaryHPLC Pump.
as §1, §2, §3
(§6) Under the condition of no mobile phase interference, the Epacadostat retention time was about 20 min.
as §4
as §5, with “20 μL of DMSO solution (120 mg/mL) of Epacadostat was taken and added into 1.18 mL of fresh rat blank plasma. Incubation” for “Incubation”

[3] = Original drug Epacadostat plasma stability test (Embodiment 14, 6.4); settings: rat plasma, 37° C.
Description: Liquid chromatograph: Waters 2489UV/Visible Detector, Waters 1525Binary HPLC Pump.
as §1, §2, §3, §6, §4
as §5, with “20 μL of DMSO solution (120 mg/mL) of Epacadostat was taken and added into 1.18 mL of fresh rat blank plasma. Incubation” for “Incubation”, “6.3.” for “7.3.”

Conversion rate into Epacadostat ([1]; 0.5 h) [%]	Conversion rate into Epacadostat ([1]; 1 h) [%]	Conversion rate into Epacadostat ([1]; 2 h) [%]	Conversion rate into Epacadostat ([1]; 3 h) [%]	Conversion rate into Epacadostat ([1]; 6 h) [%]	Conversion rate into Epacadostat ([1]; 12 h) [%]	Epacadostat concentration in plasma ([2]; time 1 h) [mg/mL]	Epacadostat concentration in plasma ([2]; time 3 h) [mg/mL]	Epacadostat concentration in plasma ([2]; time 6 h) [mg/mL]	Epacadostat concentration in plasma ([2]; time 24 h) [mg/mL]	Stability in plasma (in words) ([2]; up to 24 h)	Epacadostat concentration in plasma ([3]; time 1 h) [mg/mL]	Epacadostat concentration in plasma ([3]; time 3 h) [mg/mL]	Epacadostat concentration in plasma ([3]; time 6 h) [mg/mL]	Epacadostat concentration in plasma ([3]; time 24 h) [mg/mL]	Stability in plasma (in words) ([3]; up to 24 h)	Structure (SMILES)
33.7	56.3	77.2	87.2	93.8	100	–	–	–	–	–	–	–	–	–	–	CC(C)C(=O)O/N=C(\Nc1ccc(F)c(Br)c1)c1nonc1NCCNS(=O)(=O)N=Cc1cccs1 [II-1]
31.1	43.1	58.3	70.3	88.3	98.3	–	–	–	–	–	–	–	–	–	–	CCCC(=O)O/N=C(\Nc1ccc(F)c(Br)c1)c1nonc1NCCNS(=O)(=O)N=Cc1ccc(N(C)C)cc1 [II-3]
47.2	49.0	51.6	75.2	89.6	100	–	–	–	–	–	–	–	–	–	–	CCCCC(=O)O/N=C(\Nc1ccc(F)c(Br)c1)c1nonc1NCCNS(=O)(=O)N=Cc1ccc(Cl)s1 [II-4]
–	–	–	–	–	–	1.22	1.20	1.24	1.20	can stably exist in the plasma	1.22	1.20	1.24	1.20	can stably exist in the plasma	NS(=O)(=O)NCCNc1nonc1C(=NO)Nc1ccc(F)c(Br)c1 [Epacadostat]
